Data published in patent US20250170111A1, “PYRIDINE BASED CHALCONE ANALOGS AS THERAPEUTIC AGENTS AND USE THEREOF” (QATAR UNIVERSITY, priority 2023, published 2025).
Like-named read-outs stand apart in the source and are kept apart here.

What was measured:
[1] = test system: DU145; experiment: Cell cycle analysis (PI flow cytometry), DU145; format: cell-based, human; conditions: DU145, 48 hours; not statistically significant (P>0.05)
Method: Cells were seeded in 100 mm Petri dishes at a density of 1.5 million cells/dish and incubated in RPMI supplemented with 10% FBS overnight at 37° C. Complete culture media was then removed, and cells were starved in serum serum-free for 16 hours to synchronize cells at the G0/G1 phase of the cell cycle. Subsequently, cells were treated with the compounds 13, 15, and 16 or docetaxel for 48 hours. After treatment, floating and adherent cells were collected, washed with ice-cold PBS and centrifuged at 500 g for 10 minutes at 4° C. Next, cells were fixed with ice-cold 70% ethanol added drop wisely while vertexing and stored at −20° C. for at least 24 hours. On the day of analysis, cells were pelleted (centrifuged at 800 g for 10 minutes at 4° C.), washed twice with ice-cold PBS and counted. Around one million cells of each sample were resuspended in 500 μl of FxCycle PI/RNase Staining Solution® (Thermo Fisher Scientific, USA) supplemented with 200 μg/ml RNase and incubated for 50 minutes at 37° C. in a shaking water bath, protected from light. Following incubation, cells were immediately analyzed by BD FACSAria™ II Flow Cytometer, at least 50,000 events were acquired for each sample. The proportion of cells in each cell cycle phase: […]

[2] = test system: PC3 and DU145; experiment: Soft agar colony formation assay, PC3 and DU145 (stated for both); format: cell-based, human; conditions: 5 and 10 μM, 14 days, both cell lines
Method: Anchorage-independent growth, a characteristic of transformed cells that correlate with in vivo tumorigenic potential, was assessed by soft agar assay. First, a 2% noble agar (Sigma-Aldrich) stock solution was prepared in deionized and autoclaved water. […] After 14 days, the average number of colonies in each well was counted manually under the microscope and confirmed by ImageJ; only colonies with an area larger than […] were counted to avoid the inclusion of non-proliferating dead cells. Besides, the size of colonies in each treatment condition was measured by ImageJ from at least six random fields per well.

[3] = test system: C4-2 and LNCaP; experiment: Morphological examination, AR-positive PCa cell lines; format: cell-based
Method: Cells were seeded in 6 wells plate at a density of 150,000-200,000 cells/well and were incubated overnight. […] Morphological changes were monitored using a DMi8 inverted microscope (Leica, Germany) and images were captured with a Leica MC170 HD camera.

[4] = test system: PC3 and DU145; experiment: Wound healing assay, PC3 and DU145; conditions: both cell lines; significant from 5 μM in PC3
[5] = test system: PC3; experiment: Alamar Blue cell viability assay, PC3; conditions: for IC50: read-out: PC3 IC50, 48 hours, Mean ± SEM of three independent experiments
[6] = test system: DU145; experiment: Alamar Blue cell viability assay, DU145; conditions: Homo sapiens, DU-145, 48 h, read-out: DU145 IC50
[7] = test system: primary human dental bulb cells (ND); experiment: Alamar Blue cell viability, normal primary dental cells; conditions: 48 hours, Mean ± SEM
[8] = test system: Bax, Bcl-2; experiment: Western blot of apoptosis-related proteins in PC3 and DU145; conditions: PC3 and DU145, 48 hours of treatment
[9] = test system: PC3 and DU145; experiment: Alamar Blue cell viability, AR-negative PCa cell lines (stated for both); conditions: Homo sapiens, DU-145, read-out: IC50 against PC3 and DU145 cell lines
[10] = test system: JNK1/2/3, ERK1/2, Akt; experiment: Western blot of JNK, ERK and AKT-related biomarkers in PC3; conditions: PC3 cell line
[11] = test system: MDA-MB-231; experiment: Alamar Blue cell viability assay, MDA-MB-231; format: cell-based; conditions: Homo sapiens, Mean ± SEM, read-out: IC50 against MDA-MB-231
Source text: (§1) Besides, the effect of these analogs was compared to docetaxel, a first-line chemotherapy, as a positive control.

[12] = test system: MDA-MB-436; experiment: Alamar Blue cell viability assay, MDA-MB-436; format: cell-based; conditions: Homo sapiens, Mean ± SEM, read-out: IC50 against MDA-MB-436
Source text: as §1

[13] = test system: MDA-MB-231 and MDA-MB-436; experiment: Alamar Blue cell viability, TNBC cell lines (stated for both); format: cell-based; conditions: Homo sapiens
Source text: as §1

[14] = test system: MDA-MB-231; experiment: Wound healing assay, MDA-MB-231; format: cell-based, human
[15] = test system: MDA-MB-231 and MDA-MB-436; experiment: Soft agar colony formation assay, TNBC cell lines; format: cell-based, human; conditions: 28 days
[16] = test system: MDA-231 and MDA-436; experiment: Morphological examination, TNBC cell lines; format: cell-based, human; conditions: 24 and 48 hours post treatment
Method: Cells were seeded in 6 wells plate at a density of 150,000-200,000 cells/well and were incubated overnight. Then, cells were treated with the synthesized compounds at 5-10 μM concentration for 48 hours. Morphological changes were monitored using a DMi8 inverted microscope (Leica, Germany) and images were captured with a Leica MC170 HD camera.

[17] = test system: MCF 10A; experiment: Alamar Blue cell viability, normal breast epithelial cell line
[18] = test system: MCF 10A; conditions: selectivity index
[19] = test system: PC3 and DU145; experiment: Cell cycle analysis (PI flow cytometry), PC3 and DU145; format: cell-based, human; conditions: 48 hours
Method: The compounds' effect on cell cycle distribution of PC3 and DU145 was assessed by flow cytometry using propidium iodide (PI). Cells were seeded in 100 mm Petri dishes at a density of 1.5 million cells/dish and incubated in RPMI supplemented with 10% FBS overnight at 37° C. Complete culture media was then removed, and cells were starved in serum serum-free for 16 hours to synchronize cells at the G0/G1 phase of the cell cycle. Subsequently, cells were treated with the compounds 13, 15, and 16 or docetaxel for 48 hours. After treatment, floating and adherent cells were collected, washed with ice-cold PBS and centrifuged at 500 g for 10 minutes at 4° C. Next, cells were fixed with ice-cold 70% ethanol added drop wisely while vertexing and stored at −20° C. for at least 24 hours. On the day of analysis, cells were pelleted (centrifuged at 800 g for 10 minutes at 4° C.), washed twice with ice-cold PBS and counted. […] Following incubation, cells were immediately analyzed by BD FACSAria™ II Flow Cytometer, at least 50,000 events were acquired for each sample. The proportion of cells in each cell cycle phase: G1, S and G2-M was determined using FlowJo software based on cells' DNA content as represented by histograms of PI signal intensity.

[20] = range over both TNBC cell lines, read-out: IC50 against MDA-MB-231 and MDA-MB-436 cell lines

Compound	effect on cell cycle distribution [1]	wound closure [4]	IC50 [5]	IC50 [6]	ND LD50 [7]	Bax/Bcl-2 expression [8]	IC50 [9]	IC50 ([11]; 24 hrs. post treatment)	IC50 ([11]; 48 hrs. post treatment)	IC50 ([12]; 24 hrs. post treatment)	IC50 ([12]; 48 hrs. post treatment)	IC50 [13, 20]	colony formation in soft agar (number and size) [15]	effect on cell morphology [16]	other results
COc1cc2c(cc1OC)C(=O)/C(=C/c1ccc(-c3ccsc3)nc1)CC2 [Compound 13, (E)-6,7-dimethoxy-2-((6-(thiophen-3-yl)pyridin-3-yl)methylene)-3,4-dihydronaphthalen-1 (2H)-one]	slight accumulation in G2/M and sub G1 phases	dose-dependent reduction in wound closure	5.6 ± 0.38 µM	5.63 ± 1.07 µM	>50.0 µM	significant increase in Bax/Bcl-2 ratio	4.32 to 6.47 µM	–	–	–	–	–	–	–	colony formation in soft agar (number and size) [2]: significant reduction in both the total number of colonies and average colony size; effect on cell morphology [3]: lose their shape, shrink in size, and increased cell death
COc1ccc2c(c1)C(=O)/C(=C/c1cccc(-c3ccsc3)n1)CC2 [Compound 15, (E)-7-methoxy-2-((6-(thiophen-3-yl)pyridin-2-yl)methylene)-3,4-dihydronaphthalen-1 (2H)-one]	slight accumulation in G2/M and sub G1 phases	dose-dependent reduction in wound closure	6.6 ± 0.49 µM	6.47 ± 0.57 µM	>50.0 µM	significant increase in Bax/Bcl-2 ratio	4.32 to 6.47 µM	–	–	–	–	–	–	–	expression of JNK1/2/3, ERK1/2, Akt and phosphorylated forms [10]: reduced the expression of JNK1/2/3, p-ERK1/2, Akt and p-Akt
COc1ccccc1C(=O)/C=C/c1cccc(-c2ccsc2)n1 [Compound 17, (E)-1-(2-methoxyphenyl)-3-(6-(thiophen-3-yl)pyridin-2-yl) prop-2-en-1-one]	–	–	–	–	–	–	–	3.6 ± 0.5 µM	3.2 µM	3.2 ± 0.2 µM	1.6 µM	0.87 to 3.2 µM	significant reduction in both the total number of colonies and average colony size	lose their shape, shrink in size, form apoptotic bodies, and increased cell death	cell migration of MDA-MB-231 (wound healing) [14]: significantly reduced cell migration; reduction in cell viability of PC3 ([5]; 2.5 μM): 84.7%; selectivity versus normal cells (MCF10a) [17]: greater selectivity towards cancerous cell lines
CS(=O)(=O)c1ccc(C(=O)/C=C/c2cccc(-c3ccsc3)n2)cc1 [Compound 23, (E)-1-(4-(methylsulfonyl)phenyl)-3-(6-(thiophen-3-yl)pyridin-2-yl) prop-2-en-1-one]	–	–	–	–	–	–	–	–	–	–	–	–	significant reduction in both the total number of colonies and average colony size	–	–
O=C(/C=C/c1cccc(-c2ccsc2)n1)c1ccccc1C(F)(F)F [Compound 25, (E)-3-(6-(thiophen-3-yl)pyridin-2-yl)-1-(2-(trifluoromethyl)phenyl) prop-2-en-1-one]	–	–	–	–	–	–	–	3.5 ± 1.47 µM	2.1 µM	2.4 ± 0.2 µM	0.87 µM	0.87 to 3.2 µM	–	lose their shape, shrink in size, form apoptotic bodies, and increased cell death	IC50 ([13]; range, unit inferred, read-out: IC50 (TNBC cell lines)): 0.87 to 2.1 µM; cell migration of MDA-MB-231 (wound healing) ([14]; dose-dependent): significantly reduced cell migration; SI of MCF 10A/MDA-MB231 [18]: 1.8; SI of MCF 10A/MDA-MB436 [18]: 3.9; selectivity versus normal cells (MCF10a) ([17]; MDA-231 and MDA-436 vs MCF10a): greater selectivity towards cancerous cell lines; Effect on non-tumorigenic epithelial cell line MCF 10A ([17]; after 48 hrs.): 3.44 ± 0.4 µM
CC(=O)O[C@@]12CO[C@@H]1C[C@H](O)[C@@]1(C)C(=O)[C@H](O)C3=C(C)[C@@H](OC(=O)[C@H](O)[C@@H](NC(=O)OC(C)(C)C)c4ccccc4)C[C@@](O)([C@@H](OC(=O)c4ccccc4)[C@H]21)C3(C)C [docetaxel, reference compound]	–	–	–	–	–	–	–	11 ± 1.7 µM	6.43 ± 0.6 µM	11.9 ± 2.7 µM	9.8 ± 2 µM	–	–	–	increase of G2/M phase as compared to control [19]: 1.9-2.6 folds
